Laboratory results as given in patent US20050165064A1, “Novel thiol derivative, process for producing the same and use thereof” (priority 2003, published 2005).
Where a name gives a salt, the structure may show the parent alone. Blank lines part the entries; values can stand above or below the molecule they belong to.

Target: Recombinant Human MMP-13 (Homo sapiens, UniProt P45452)
Assay: MMP-13 inhibitory activity, fluorescent synthetic substrate method
Format: biochemical
Details: 8 nM APMA-activated enzyme, 10 μM substrate, 37° C., 1 hour
Procedure: The MMP-13 inhibitory activity was measured by a method using a fluorescent synthetic substrate. To a buffer solution for measurement (100 mM Tris-HCl, pH 7.4, 100 mM NaCl, 10 mM CaCl2) containing Recombinant Human MMP-13 (manufactured by Takeda Pharmaceuticals, Inc.) activated by APMA (1 mM) in a concentration of 8 nM, the compound dissolved in DMSO was added in a predetermined concentration. Subsequently, a fluorescent synthetic substrate (7-methoxycoumarin-4-yl)acetyl-Pro-Leu-Gly-Leu-(3-[2,4-dinitrophenyl]-L-2,3-diaminopropionyl)-Ala-Arg-NH2 was added thereto in a concentration of 10 μM to initiate the reaction. After incubation at 37° C. for 1 hour, a 500 mM acetate buffer (pH 3.0) was added to stop the reaction. The increase in the fluorescence intensity due to substrate decomposition was measured employing a CORONA MTP-32 plate reader under the condition of Ex/Em=340/400. The rate of inhibition of the enzymatic inhibitory activity was determined from the following equation: Rate of Inhibition (%)=100−(X−C)/(T−C)×100
T: Fluorescence intensity of the control with addition of enzyme and without addition of the compound
C: Fluorescence intensity of the control without addition of enzyme and without addition of the compound
X: Fluorescence intensity with addition of enzyme and with addition of the compound

inhibition at 0.0015 µM (compound 1.5 nM, read-out: rate of inhibition for MMP-13 activity): 50%
Structure (SMILES): CCc1ccc(Oc2ccc(CN3C[C@H](S)CC3=O)cn2)cc1 [Example 12, (4R)-1-{[6-(4-ethylphenoxy)pyridin-3-yl]methyl}-4-mercaptopyrrolidin-2-one]

Structure (SMILES): CS(=O)(=O)Nc1ccc(Oc2ccc(CN3C[C@H](S)CC3=O)cn2)cc1 [Example 15]
rate of inhibition for MMP-13 activity (compound 1.5 nM): 67%

inhibition at 0.003 µM (compound 3 nM, read-out: rate of inhibition for MMP-13 activity): 63%
Structure (SMILES): O=C1C[C@@H](S)CN1Cc1ccc(Oc2ccc(F)cc2)nc1 [Example 2, (4R)-1-{[6-(4-fluorophenoxy)pyridin-3-yl]methyl}-4-mercaptopyrrolidin-2-one hydrochloride]
